Source: patent publication US8445510B2, “Fused bicyclic kinase inhibitors” (OSI Pharmaceuticals, LLC, priority 2011, dated 2013)
pIC50: −log10 of the molar value.

Columns and labels:
[1] = target: T1, RON (Homo sapiens, UniProt Q04912); test: sfRON cell mechanistic assay (HeLa), phosphorylated RON ELISA; assay type: cell-based; conditions: HeLa cells transfected with sfRON; inhibition of phosphorylated RON; four hours incubation; at least duplicate experiments; read-out: sfRON mech IC50
T1 sequence (Q04912 913-1400): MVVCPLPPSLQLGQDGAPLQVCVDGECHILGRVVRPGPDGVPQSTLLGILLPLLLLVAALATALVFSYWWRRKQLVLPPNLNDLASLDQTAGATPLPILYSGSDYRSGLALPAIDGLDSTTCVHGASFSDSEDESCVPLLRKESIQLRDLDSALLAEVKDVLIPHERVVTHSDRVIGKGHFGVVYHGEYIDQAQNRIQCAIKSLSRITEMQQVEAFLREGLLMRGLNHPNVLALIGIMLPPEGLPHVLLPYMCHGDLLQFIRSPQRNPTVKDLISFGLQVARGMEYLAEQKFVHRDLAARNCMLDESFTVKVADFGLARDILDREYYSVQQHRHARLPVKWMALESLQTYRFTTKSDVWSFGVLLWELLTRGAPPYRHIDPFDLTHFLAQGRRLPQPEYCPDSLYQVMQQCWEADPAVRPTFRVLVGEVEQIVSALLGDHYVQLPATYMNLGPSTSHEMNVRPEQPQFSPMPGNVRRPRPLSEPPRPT
Outline: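 HeLa cells transiently transfected with sfRON plasmid, then exposed 4 h at 37 °C to a 6-point compound series (typically 10 μM to 3 nM, 0.5% DMSO). Phospho-RON (pY1238/1239) in lysates measured by sandwich ELISA with luminescence. IC50 from 4-parameter fit of percent-of-DMSO-control data, at least duplicate runs.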

[2] = system: Karpas-299 cells; test: Karpas-299 cell proliferation assay (CellTiter-Glo); assay type: cell-based; conditions: Homo sapiens, 72 h; Karpas-299 cell line (NPM-ALK); 3 days incubation; at least duplicate experiments; read-out: Prolif. IC50

Structure (SMILES) | pIC50 [1] | pIC50 [2]
COc1ccc(F)c(Cl)c1[C@@H](C)c1c[nH]c2ncc(-c3c[nH]nc3C)cc12 [Example 1, 3-[(1S)-1-(2-Chloro-3-fluoro-6-methoxyphenyl)ethyl]-5-(3-methyl-1H-pyrazol-4-yl)-1H-pyrrolo[2,3-b]pyridine] | 6.00 to 6.70 | 6.70 to 7.30
COc1ccc(F)c(Cl)c1[C@@H](C)c1c[nH]c2ncc(-c3cn(C)nc3C)cc12 [Example 2, 3-[(1S)-1-(2-Chloro-3-fluoro-6-methoxyphenyl)ethyl]-5-(1,3-dimethyl-1H-pyrazol-4-yl)-1H-pyrrolo[2,3-b]pyridine] | 6.00 to 6.70 | 6.70 to 7.30
COc1ccc(F)c(Cl)c1[C@@H](C)c1c[nH]c2ncc(-c3cnn(C)c3C)cc12 [Example 3, 3-[(1S)-1-(2-Chloro-3-fluoro-6-methoxyphenyl)ethyl]-5-(1,5-dimethyl-1H-pyrazol-4-yl)-1H-pyrrolo[2,3-b]pyridine] | 6.00 to 6.70 | 6.70 to 7.30
COc1ccc(F)c(Cl)c1[C@@H](C)c1c[nH]c2ncc(-c3c(C)nn(C)c3C)cc12 [Example 4, 3-[(1S)-1-(2-Chloro-3-fluoro-6-methoxyphenyl)ethyl]-5-(1,3,5-trimethyl-1H-pyrazol-4-yl)-1H-pyrrolo[2,3-b]pyridine] | < 6.00 | 6.70 to 7.30
COc1ccc(F)c(Cl)c1[C@@H](C)c1c[nH]c2ncc(-c3c(C)nn(CC(C)(C)O)c3C)cc12 [Example 5, 1-(4-{3-[(1S)-1-(2-Chloro-3-fluoro-6-methoxyphenyl)ethyl]-1H-pyrrolo[2,3-b]pyridin-5-yl}-3,5-dimethyl-1H-pyrazol-1-yl)-2-methylpropan-2-ol] | < 6.00 | ≥ 7.30
COc1ccc(F)c(Cl)c1[C@@H](C)c1c[nH]c2ncc(-c3c(C)nn([C@H]4CC[C@H](O)CC4)c3C)cc12 [Example 6, trans-4-(4-{3-[(1S)-1-(2-Chloro-3-fluoro-6-methoxyphenyl)ethyl]-1H-pyrrolo[2,3-b]pyridin-5-yl}-3,5-dimethyl-1H-pyrazol-1-yl)cyclohexanol] | 6.00 to 6.70 | ≥ 7.30
COc1ccc(F)c(Cl)c1[C@@H](C)c1c[nH]c2ncc(-c3cn(CC(C)(C)O)nc3C)cc12 [Example 7, 1-(4-{3-[(1S)-1-(2-Chloro-3-fluoro-6-methoxyphenyl)ethyl]-1H-pyrrolo[2,3-b]pyridin-5-yl}-3-methyl-1H-pyrazol-1-yl)-2-methylpropan-2-ol] | 6.00 to 6.70 | 6.70 to 7.30
COc1ccc(F)c(Cl)c1[C@@H](C)c1c[nH]c2ncc(-c3cnn(CC(C)(C)O)c3C)cc12 [Example 8, 1-(4-{3-[(1S)-1-(2-Chloro-3-fluoro-6-methoxyphenyl)ethyl]-1H-pyrrolo[2,3-b]pyridin-5-yl}-5-methyl-1H-pyrazol-1-yl)-2-methylpropan-2-ol] | 6.00 to 6.70 | 6.70 to 7.30
COc1ccc(F)c(Cl)c1[C@@H](C)c1c[nH]c2ncc(-c3cnn(C[C@H](O)CO)c3C)cc12 [Example 10, (2S)-3-(4-{3-[(1S)-1-(2-Chloro-3-fluoro-6-methoxyphenyl)ethyl]-1H-pyrrolo[2,3-b]pyridin-5-yl}-5-methyl-1H-pyrazol-1-yl)propane-1,2-diol] | ≥ 6.70 | ≥ 7.30
CCc1c(-c2cnc3[nH]cc([C@H](C)c4c(OC)ccc(F)c4Cl)c3c2)cnn1CC(C)(C)O [Example 11, 1-(4-{3-[(1S)-1-(2-Chloro-3-fluoro-6-methoxyphenyl)ethyl]-1H-pyrrolo[2,3-b]pyridin-5-yl}-5-ethyl-1H-pyrazol-1-yl)-2-methylpropan-2-ol] | 6.00 to 6.70 | 6.00 to 6.70
CCc1nn(CC(C)(C)O)cc1-c1cnc2[nH]cc([C@H](C)c3c(OC)ccc(F)c3Cl)c2c1 [Example 12, 1-(4-{3-[(1S)-1-(2-Chloro-3-fluoro-6-methoxyphenyl)ethyl]-1H-pyrrolo[2,3-b]pyridin-5-yl}-3-ethyl-1H-pyrazol-1-yl)-2-methylpropan-2-ol] | 6.00 to 6.70 | 6.70 to 7.30
COc1ccc(F)c(Cl)c1[C@@H](C)c1c[nH]c2ncc(-c3cnn([C@H]4CC[C@H](C(=O)N(C)C)CC4)c3C)cc12 [Example 14, Trans-4-(4-{3-[(1S)-1-(2-chloro-3-fluoro-6-methoxyphenyl)ethyl]-1H-pyrrolo[2,3-b]pyridin-5-yl}-5-methyl-1H-pyrazol-1-yl)-N,N-dimethylcyclohexanecarboxamide] | 6.00 to 6.70 | ≥ 7.30
CNC(=O)[C@H]1CC[C@H](n2ncc(-c3cnc4[nH]cc([C@H](C)c5c(OC)ccc(F)c5Cl)c4c3)c2C)CC1 [Example 17, trans-4-(4-{3-[(1S)-1-(2-Chloro-3-fluoro-6-methoxyphenyl)ethyl]-1H-pyrrolo[2,3-b]pyridin-5-yl}-5-methyl-1H-pyrazol-1-yl)-N-methyl cyclohexanecarboxamide] | ≥ 6.70 | ≥ 7.30
COc1ccc(F)c(Cl)c1[C@@H](C)c1c[nH]c2ncc(-c3cnn([C@H]4CC[C@H](C(N)=O)CC4)c3C)cc12 [Example 18, trans-4-(4-{3-[(1S)-1-(2-chloro-3-fluoro-6-methoxyphenyl)ethyl]-1H-pyrrolo[2,3-b]pyridin-5-yl}-5-methyl-1H-pyrazol-1-yl)cyclohexanecarboxamide] | 6.00 to 6.70 | ≥ 7.30
COc1ccc(F)c(Cl)c1[C@@H](C)c1c[nH]c2ncc(-c3cn([C@H]4CC[C@H](C(N)=O)CC4)nc3C)cc12 [Example 19, trans-4-(4-{3-[(1S)-1-(2-Chloro-3-fluoro-6-methoxyphenyl)ethyl]-1H-pyrrolo[2,3-b]pyridin-5-yl}-3-methyl-1H-pyrazol-1-yl)cyclohexanecarboxamide] | ≥ 6.70 | ≥ 7.30
CNC(=O)[C@H]1CC[C@H](n2cc(-c3cnc4[nH]cc([C@H](C)c5c(OC)ccc(F)c5Cl)c4c3)c(C)n2)CC1 [Example 22, trans-4-(4-{3-[(1S)-1-(2-Chloro-3-fluoro-6-methoxyphenyl)ethyl]-1H-pyrrolo[2,3-b]pyridin-5-yl}-3-methyl-1H-pyrazol-1-yl)-N-methylcyclohexanecarboxamide] | ≥ 6.70 | ≥ 7.30
COc1ccc(F)c(Cl)c1[C@@H](C)c1c[nH]c2ncc(-c3cnn([C@H]4CC[C@H](O)CC4)c3C)cc12 [Example 27, trans-4-(4-{3-[(1S)-1-(2-Chloro-3-fluoro-6-methoxyphenyl)ethyl]-1H-pyrrolo[2,3-b]pyridin-5-yl}-5-methyl-1H-pyrazol-1-yl)cyclohexanol] | 6.00 to 6.70 | ≥ 7.30
COc1ccc(F)c(Cl)c1[C@@H](C)c1c[nH]c2ncc(-c3cnn([C@@H]4C[C@@H](O)[C@@H](O)C4)c3C)cc12 [Example 31, (1R,2S,4S)-4-(4-{3-[(1S)-1-(2-Chloro-3-fluoro-6-methoxyphenyl)ethyl]-1H-pyrrolo[2,3-b]pyridin-5-yl}-5-methyl-1H-pyrazol-1-yl)cyclopentane-1,2-diol] | 6.00 to 6.70 | ≥ 7.30
COc1ccc(F)c(Cl)c1[C@@H](C)c1c[nH]c2ncc(-c3cn([C@@H]4C[C@@H](O)[C@@H](O)C4)nc3C)cc12 [Example 32, (1R,2S,4S)-4-(4-{3-[(1S)-1-(2-Chloro-3-fluoro-6-methoxyphenyl)ethyl]-1H-pyrrolo[2,3-b]pyridin-5-yl}-3-methyl-1H-pyrazol-1-yl)cyclopentane-1,2-diol] | ≥ 6.70 | ≥ 7.30
COc1ccc(F)c(Cl)c1[C@@H](C)c1c[nH]c2ncc(-c3c(C)nn([C@@H]4C[C@@H](O)[C@@H](O)C4)c3C)cc12 [Example 33, (1R,2S,4S)-4-(4-{3-[(1S)-1-(2-Chloro-3-fluoro-6-methoxyphenyl)ethyl]-1H-pyrrolo[2,3-b]pyridin-5-yl}-3,5-dimethyl-1H-pyrazol-1-yl)cyclopentane-1,2-diol] | 6.00 to 6.70 | ≥ 7.30
COc1ccc(F)c(Cl)c1[C@@H](C)c1c[nH]c2ncc(-c3cn(C[C@@H](O)CO)nc3C(F)(F)F)cc12 [Example 34, (2R)-3-[4-{3-[(1S)-1-(2-Chloro-3-fluoro-6-methoxyphenyl)ethyl]-1H-pyrrolo[2,3-b]pyridin-5-yl}-3-(trifluoromethyl)-1H-pyrazol-1-yl]propane-1,2-diol] | < 6.00 | 6.00 to 6.70
COc1ccc(F)c(Cl)c1[C@@H](C)c1c[nH]c2ncc(-c3cnn(C[C@@H](O)CO)c3C(F)(F)F)cc12 [Example 35, (2R)-3-[4-{3-[(1S)-1-(2-Chloro-3-fluoro-6-methoxyphenyl)ethyl]-1H-pyrrolo[2,3-b]pyridin-5-yl}-5-(trifluoromethyl)-1H-pyrazol-1-yl]propane-1,2-diol] | < 6.00 | 6.00 to 6.70
COc1ccc(F)c(Cl)c1[C@@H](C)c1c[nH]c2ncc(-c3cnn(C)c3N)cc12 [Example 38, 4-{3-[(1S)-1-(2-Chloro-3-fluoro-6-methoxyphenyl)ethyl]-1H-pyrrolo[2,3-b]pyridin-5-yl}-1-methyl-1H-pyrazol-5-amine] | 6.00 to 6.70 | 6.70 to 7.30
